In ChEMBL document CHEMBL5625164, “Design, synthesis, and evaluation of new anti-inflammatory natural products amide derivatives endowed with anti-blood cancer activity towards development of potential multifunctional agents against hematological cancers” (Eur J Med Chem, 2023):

Experiments:
[1] = Cytotoxicity against mouse RAW264.7 cells assessed as macrophage viability at 10 uM relative to control; type: toxicity, cell-based; conditions: read-out: Activity
BV-2 [2] = test: Anti-inflammatory activity against mouse BV-2 cells assessed as inhibition of LPS-induced NO production pretreated for 2 hrs followed stimulated with LPS for 22 hrs by Griess reaction assay; type: functional, cell-based
BV-2 [3] = test: Anti-inflammatory activity against mouse BV-2 cells assessed as inhibition of LPS-induced NO production at 10 uM pretreated for 2 hrs followed stimulated with LPS for 22 hrs by Griess reaction assay relative to control; type: functional; conditions: time 24 hrs
BV-2 [4] = test: Anti-inflammatory activity against mouse BV-2 cells assessed as inhibition of LPS-induced PGE2 production pretreated for 2 hrs followed stimulated with LPS for 22 hrs; type: functional, cell-based
BV-2 [5] = test: Anti-inflammatory activity against mouse BV-2 cells assessed as inhibition of LPS-induced PGE2 production pretreated for 2 hrs followed stimulated with LPS for 22 hrs at 10 uM relative to control; type: functional; conditions: time 24 hrs
BV-2 [6] = test: Anti-inflammatory activity against mouse BV-2 cells assessed as inhibition of LPS-induced TNFalpha production pretreated for 2 hrs followed stimulated with LPS for 22 hrs; type: functional, cell-based; conditions: time 24.0 hrs
BV-2 [7] = test: Anti-inflammatory activity against mouse BV-2 cells assessed as inhibition of LPS-induced TNFalpha production pretreated for 2 hrs followed stimulated with LPS for 22 hrs at 10 uM relative to control; type: functional; conditions: time 24 hrs
CCRF-CEM [8] = test: Anticancer activity against human CCRF-CEM cells assessed as growth inhibition at 10 uM measured after 48 hrs by SRB assay relative to control; type: functional; conditions: read-out: GI
K562 [9] = test: Anticancer activity against human K562 cells assessed as growth inhibition at 10 uM measured after 48 hrs by SRB assay relative to control; type: functional; conditions: read-out: GI
MOLT-4 [10] = test: Anticancer activity against human MOLT-4 cells assessed as growth inhibition at 10 uM measured after 48 hrs by SRB assay relative to control; type: functional; conditions: read-out: GI
RPMI-8226 [11] = test: Anticancer activity against human RPMI-8226 cells assessed as growth inhibition at 10 uM measured after 48 hrs by SRB assay relative to control; type: functional; conditions: read-out: GI
SR [12] = test: Anticancer activity against human SR cells assessed as growth inhibition at 10 uM measured after 48 hrs by SRB assay relative to control; type: functional; conditions: read-out: GI
CCRF-CEM [13] = test: Anticancer activity against human CCRF-CEM cells assessed as growth inhibition measured after 48 hrs by SRB assay relative to control; type: functional
HL-60 [14] = test: Anticancer activity against human HL-60 cells assessed as growth inhibition measured after 48 hrs by SRB assay relative to control; type: functional
K562 [15] = test: Anticancer activity against human K562 cells assessed as growth inhibition measured after 48 hrs by SRB assay relative to control; type: functional
MOLT-4 [16] = test: Anticancer activity against human MOLT-4 cells assessed as growth inhibition measured after 48 hrs by SRB assay relative to control; type: functional
RPMI-8226 [17] = test: Anticancer activity against human RPMI-8226 cells assessed as growth inhibition measured after 48 hrs by SRB assay relative to control; type: functional
SR [18] = test: Anticancer activity against human SR cells assessed as growth inhibition measured after 48 hrs by SRB assay relative to control; type: functional
HL-60 [19] = test: Induction of cell cycle arrest in human HL-60 cells assessed as accumulation of cells at SubG1 phase at 10 uM measured after 24 hrs by propidium iodide staining based flow cytometry (reference value: 5.89%); type: functional
HL-60 [20] = test: Induction of cell cycle arrest in human HL-60 cells assessed as accumulation of cells at G0/G1 phase at 10 uM measured after 24 hrs by propidium iodide staining based flow cytometry (reference value: 66.61%); type: functional
HL-60 [21] = test: Induction of cell cycle arrest in human HL-60 cells assessed as accumulation of cells at S phase at 10 uM measured after 24 hrs by propidium iodide staining based flow cytometry (reference value: 13.85%); type: functional
HL-60 [22] = test: Induction of cell cycle arrest in human HL-60 cells assessed as accumulation of cells at G2/M phase at 10 uM measured after 24 hrs by propidium iodide staining based flow cytometry (reference value: 9.01%); type: functional
HL-60 [23] = test: Induction of cell cycle arrest in human HL-60 cells assessed as accumulation of cells at SubG1 phase at 25 uM measured after 24 hrs by propidium iodide staining based flow cytometry (reference value: 5.89%); type: functional
HL-60 [24] = test: Induction of cell cycle arrest in human HL-60 cells assessed as accumulation of cells at G0/G1 phase at 25 uM measured after 24 hrs by propidium iodide staining based flow cytometry (reference value: 66.61%); type: functional
HL-60 [25] = test: Induction of cell cycle arrest in human HL-60 cells assessed as accumulation of cells at S phase at 25 uM measured after 24 hrs by propidium iodide staining based flow cytometry (reference value: 13.85%); type: functional
HL-60 [26] = test: Induction of cell cycle arrest in human HL-60 cells assessed as accumulation of cells at G2/M phase at 25 uM measured after 24 hrs by propidium iodide staining based flow cytometry (reference value: 9.01%); type: functional
HL-60 [27] = test: Induction of cell cycle arrest in human HL-60 cells assessed as accumulation of cells at SubG1 phase at 50 uM measured after 24 hrs by propidium iodide staining based flow cytometry (reference value: 5.89%); type: functional
HL-60 [28] = test: Induction of cell cycle arrest in human HL-60 cells assessed as accumulation of cells at G0/G1 phase at 50 uM measured after 24 hrs by propidium iodide staining based flow cytometry (reference value: 66.61%); type: functional
HL-60 [29] = test: Induction of cell cycle arrest in human HL-60 cells assessed as accumulation of cells at S phase at 50 uM measured after 24 hrs by propidium iodide staining based flow cytometry (reference value: 13.85%); type: functional
HL-60 [30] = test: Induction of cell cycle arrest in human HL-60 cells assessed as accumulation of cells at G2/M phase at 50 uM measured after 24 hrs by propidium iodide staining based flow cytometry (reference value: 9.01%); type: functional
HL-60 [31] = test: Induction of cell cycle arrest in human HL-60 cells assessed as accumulation of cells at SubG1 phase at 10 uM measured after 48 hrs by propidium iodide staining based flow cytometry (reference value: 4.25%); type: functional
HL-60 [32] = test: Induction of cell cycle arrest in human HL-60 cells assessed as accumulation of cells at G0/G1 phase at 10 uM measured after 48 hrs by propidium iodide staining based flow cytometry (reference value: 60.03%); type: functional
HL-60 [33] = test: Induction of cell cycle arrest in human HL-60 cells assessed as accumulation of cells at S phase at 10 uM measured after 48 hrs by propidium iodide staining based flow cytometry (reference value: 7.16%); type: functional
HL-60 [34] = test: Induction of cell cycle arrest in human HL-60 cells assessed as accumulation of cells at G2/M phase at 10 uM measured after 48 hrs by propidium iodide staining based flow cytometry (reference value: 16.61%); type: functional
HL-60 [35] = test: Induction of cell cycle arrest in human HL-60 cells assessed as accumulation of cells at SubG1 phase at 25 uM measured after 48 hrs by propidium iodide staining based flow cytometry (reference value: 4.25%); type: functional
HL-60 [36] = test: Induction of cell cycle arrest in human HL-60 cells assessed as accumulation of cells at G0/G1 phase at 25 uM measured after 48 hrs by propidium iodide staining based flow cytometry (reference value: 60.03%); type: functional
HL-60 [37] = test: Induction of cell cycle arrest in human HL-60 cells assessed as accumulation of cells at S phase at 25 uM measured after 48 hrs by propidium iodide staining based flow cytometry (reference value: 7.16%); type: functional
HL-60 [38] = test: Induction of cell cycle arrest in human HL-60 cells assessed as accumulation of cells at G2/M phase at 25 uM measured after 48 hrs by propidium iodide staining based flow cytometry (reference value: 16.61%); type: functional
HL-60 [39] = test: Induction of cell cycle arrest in human HL-60 cells assessed as accumulation of cells at SubG1 phase at 50 uM measured after 48 hrs by propidium iodide staining based flow cytometry (reference value: 4.25%); type: functional
HL-60 [40] = test: Induction of cell cycle arrest in human HL-60 cells assessed as accumulation of cells at G0/G1 phase at 50 uM measured after 48 hrs by propidium iodide staining based flow cytometry (reference value: 60.03%); type: functional
HL-60 [41] = test: Induction of cell cycle arrest in human HL-60 cells assessed as accumulation of cells at S phase at 50 uM measured after 48 hrs by propidium iodide staining based flow cytometry (reference value: 7.16%); type: functional
HL-60 [42] = test: Induction of cell cycle arrest in human HL-60 cells assessed as accumulation of cells at G2/M phase at 50 uM measured after 48 hrs by propidium iodide staining based flow cytometry (reference value: 16.61%); type: functional
HL-60 [43] = test: Induction of apoptosis in human HL-60 cells assessed as early apoptotic cells measured after 24 hrs by annexin V/propidium iodide staining based FACS assay; type: functional, cell-based; conditions: dose 10-50 µM
HL-60 [44] = test: Induction of apoptosis in human HL-60 cells assessed as total apoptotic cells measured after 24 hrs by annexin V/propidium iodide staining based FACS assay; type: functional, cell-based; conditions: dose 10-50 µM

IC50 (BV-2 [2]): 14.7 µM
IC50 (BV-2 [4]): 9.1 µM
GI50 (CCRF-CEM [13]): 2.62 µM
GI50 (HL-60 [14]): 1.64 µM
GI50 (K562 [15]): 1.42 µM
GI50 (MOLT-4 [16]): 1.63 µM
GI50 (RPMI-8226 [17]): 1.58 µM
SMILES: COc1cc2c(c(OC)c1OC)C(=O)CC(c1cccc(NC(=O)c3ccc(Br)cc3)c1)O2 (racemic)
viability at 10 µM [1]: 106%
inhibition at 10 µM (BV-2 [3]): 45.2%
inhibition at 10 µM (BV-2 [5]): 61.1%
Activity (BV-2 [6]): Dose-Dependent Effect
inhibition at 10 µM (BV-2 [7]): 50%
inhibition of growth at 10 µM (CCRF-CEM [8]): 97.1%
inhibition of growth at 10 µM (K562 [9]): 94.1%
inhibition of growth at 10 µM (MOLT-4 [10]): 112%
inhibition of growth at 10 µM (RPMI-8226 [11]): 105%
inhibition of growth at 10 µM (SR [12]): 96.1%
GI50 (SR [18]): 1.34 µM
Activity (HL-60 [19]): 6.15%
Activity (HL-60 [20]): 51.19%
Activity (HL-60 [21]): 19.25%
Activity (HL-60 [22]): 5.69%
Activity (HL-60 [23]): 43.13%
Activity (HL-60 [24]): 2.08%
Activity (HL-60 [25]): 27.79%
Activity (HL-60 [26]): 2.22%
Activity (HL-60 [27]): 70.09%
Activity (HL-60 [28]): 4.82%
Activity (HL-60 [29]): 5.77%
Activity (HL-60 [30]): 1.8%
Activity (HL-60 [31]): 8.99%
Activity (HL-60 [32]): 33.83%
Activity (HL-60 [33]): 12.39%
Activity (HL-60 [34]): 26.61%
Activity (HL-60 [35]): 74.54%
Activity (HL-60 [36]): 5.89%
Activity (HL-60 [37]): 1.33%
Activity (HL-60 [38]): 10.01%
Activity (HL-60 [39]): 90.39%
Activity (HL-60 [40]): 3.96%
Activity (HL-60 [41]): 1.21%
Activity (HL-60 [42]): 1.61%
Activity (HL-60 [43]): Dose-Dependent Effect
Activity (HL-60 [44]): Dose-Dependent Effect
